# According to patent publication US10287301B2 (Achillion Pharmaceuticals, Inc., priority 2015, dated 2019):
# Target: Human Factor D (Homo sapiens (Human), UniProt P00746)
# Assay: Human Factor D Assay
# Format: biochemical
# Conditions: not given
# Procedure, shortened: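 First, compound at various concentrations is mixed with 80 nM (final) human serum Factor D in 50 mM Tris, 1M NaCl, pH 7.5 for 5 min at room temperature.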
# Chain of Human Factor D (P00746 26-253): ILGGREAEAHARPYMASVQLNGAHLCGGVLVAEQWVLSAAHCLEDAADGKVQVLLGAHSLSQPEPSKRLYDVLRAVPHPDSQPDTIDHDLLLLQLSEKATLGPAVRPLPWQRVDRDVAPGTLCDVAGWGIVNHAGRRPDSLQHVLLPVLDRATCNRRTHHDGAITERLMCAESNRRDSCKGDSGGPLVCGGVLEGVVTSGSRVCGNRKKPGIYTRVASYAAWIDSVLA
row,Structure (SMILES),IC50
1,"CC(=O)c1nn(CC(=O)N2[C@@H]3CC[C@@H](C3)[C@H]2C(=O)Nc2cccc(Br)n2)c2ccc(-c3cnc(C)nc3)cc12 [Compound 491, (1R,3S,4S)-2-(2-(3-acetyl-5-(2-methylpyrimidin-5-yl)-1H-indazol-1-yl)acetyl)-N-(6-bromopyridin-2-yl)-2-azabicyclo[2.2.1] heptane-3-carboxamide]",< 1000 nM

# Same assay, conditions: Human Factor D 80 nM, substrate Z-L-Lys-SBzl; read-out: IC50
row,Structure (SMILES),IC50
1,"CC(=O)c1cn(CC(=O)N2C[C@H](F)C[C@H]2C(=O)Nc2ccc3ccccc3c2)c2ccc(-c3ccnnc3)cc12 [Compound 110, (2S,4R)-1-(2-(3-acetyl-5-(pyridazin-4-yl)-1H-indol-1-yl)acetyl)-4-fluoro-N-(naphthalen-2-yl)pyrrolidine-2-carboxamide]",> 10000 nM
2,"NC(=O)c1nn(CC(=O)N2C[C@H](F)C[C@H]2C(=O)Nc2cccc(Br)n2)c2ccc(-c3cncnc3)cc12 [Compound 5, 1-(2-((2S,4R)-2-(6-bromopyridin-2-ylcarbamoyl)-4-fluoropyrrolidin-1-yl)-2-oxoethyl)-5-(pyrimidin-5-yl)-1H-indazole-3-carboxamide]",< 1000 nM
3,"CC(=O)c1cn(CC(=O)N2C[C@H](F)C[C@H]2C(=O)Nc2cccc(O)n2)c2ccc(-c3ccnnc3)cc12 [Compound 144, (2S,4R)-1-(2-(3-acetyl-5-(pyridazin-4-yl)-1H-indol-1-yl)acetyl)-4-fluoro-N-(6-hydroxypyridin-2-yl)pyrrolidine-2-carboxamide]",> 10000 nM
4,"CC(=O)c1cn(CC(=O)N2C[C@H](F)C[C@H]2C(=O)Nc2cccc(Br)n2)c2ccc(-c3ccc(C)nc3)cc12 [Compound 120, (2S,4R)-1-(2-(3-acetyl-5-(6-methylpyridin-3-yl)-1H-indol-1-yl)acetyl)-N-(6-bromopyridin-2-yl)-4-fluoropyrrolidine-2-carboxamide]",< 1000 nM
5,"CC(=O)c1cn(CC(=O)N2C[C@H](F)C[C@H]2C(=O)Nc2cccc(-c3ccccc3Cl)c2F)c2ccc(-c3cnnc(C)c3)cc12 [Compound 121, (2S,4R)-1-(2-(3-acetyl-5-(6-methylpyridazin-4-yl)-1H-indol-1-yl)acetyl)-N-(2′-chloro-2-fluorobiphenyl-3-yl)-4-fluoropyrrolidine-2-carboxamide]",< 1000 nM
6,"Cn1cc(N2CCCC(NC(=O)[C@@H]3C[C@@H](F)CN3C(=O)Cn3nc(C(N)=O)c4cc(-c5ccnnc5)ccc43)C2)cn1 (stereo partly drawn) [Compound 141, 1-(2-((2S,4R)-4-fluoro-2-(1-(1-methyl-1H-pyrazol-4-yl)piperidin-3-ylcarbamoyl)pyrrolidin-1-yl)-2-oxoethyl)-5-(pyridazin-4-yl)-1H-indazole-3-carboxamide]",> 10000 nM
7,"CC(=O)Nc1ncc(-c2ccc3c(c2)c(C(C)=O)cn3CC(=O)N2C[C@H](F)C[C@H]2C(=O)Nc2cccc(Br)n2)cn1 [Compound 118, (2S,4R)-1-(2-(5-(2-acetamidopyrimidin-5-yl)-3-acetyl-1H-indol-1-yl)acetyl)-N-(6-bromopyridin-2-yl)-4-fluoropyrrolidine-2-carboxamide]",< 1000 nM

# Same assay, conditions: Human Factor D assay of Example 8; Table 2; read-out: IC50
row,Structure (SMILES),IC50
1,"CC(=O)c1nn(CC(=O)N2C[C@H](F)C[C@H]2C(=O)Nc2cccc(C(F)(F)F)n2)c2ccc(-c3cnc4cc(C)nn4c3)cc12 [Compound 264, (2S,4R)-1-(2-(3-acetyl-5-(2-methylpyrazolo[1,5-a]pyrimidin-6-yl)-1H-indazol-1-yl)acetyl)-4-fluoro-N-(6-(trifluoromethyl)pyridin-2-yl)pyrrolidine-2-carboxamide]",< 1000 nM
2,"Cc1cc2ncc(-c3ccc4c(c3)c(C(N)=O)nn4CC(=O)N3C[C@H](F)C[C@H]3C(=O)Nc3cccc(Br)n3)cn2n1 [Compound 284, 1-(2-((2S,4R)-2-(6-bromopyridin-2-ylcarbamoyl)-4-fluoropyrrolidin-1-yl)-2-oxoethyl)-5-(2-methylpyrazolo[1,5-a]pyrimidin-6-yl)-1H-indazole-3-carboxamide]",< 1000 nM
3,"CC(=O)c1cn(CC(=O)N2C[C@H](F)C[C@H]2C(=O)Nc2cccc(-c3ccccc3Cl)c2F)c2ccc(-c3cnc(NCC(F)(F)F)nc3)cc12 [Compound 193, (2S,4R)-1-(2-(3-acetyl-5-(2-(2,2,2-trifluoroethylamino)pyrimidin-5-yl)-1H-indol-1-yl)acetyl)-N-(2′-chloro-2-fluorobiphenyl-3-yl)-4-fluoropyrrolidine-2-carboxamide]",< 1000 nM
4,"CC(=O)c1cn(CC(=O)N2C[C@H](F)C[C@H]2C(=O)Nc2cccc(-c3ccccc3Cl)c2F)c2ccc(-c3cnc(N)nc3)cc12 [Compound 215, (2S,4R)-1-(2-(3-acetyl-5-(2-aminopyrimidin-5-yl)-1H-indol-1-yl)acetyl)-N-(2′-chloro-2-fluorobiphenyl-3-yl)-4-fluoropyrrolidine-2-carboxamide]",< 1000 nM
5,"CC(=O)c1nn(CC(=O)N2C[C@H](F)C[C@H]2C(=O)Nc2cccc(OC(F)(F)F)c2F)c2ccc(-c3cnc(C)nc3)cc12 [Compound 220, (2S,4R)-1-(2-(3-acetyl-5-(2-methylpyrimidin-5-yl)-1H-indazol-1-yl)acetyl)-4-fluoro-N-(2-fluoro-3-(trifluoromethoxy)phenyl)pyrrolidine-2-carboxamide]",< 1000 nM

# Same assay, conditions: Human Factor D, Table 3; read-out: IC50
row,Structure (SMILES),IC50
1,"COC(=O)Cc1cccc(NC(=O)[C@@H]2C[C@@H](F)CN2C(=O)Cn2nc(C(C)=O)c3cc(-c4cnc5cc(C)nn5c4)ccc32)n1 [Compound 679, methyl 2-(6-((2S,4R)-1-(2-(3-acetyl-5-(2-methylpyrazolo[1,5-a]pyrimidin-6-yl)-1H-indazol-1-yl)acetyl)-4-fluoropyrrolidine-2-carboxamido)pyridin-2-yl)acetate]",< 1000 nM
2,"COc1ncc(-c2ccc3c(c2)c(C(C)=O)nn3CC(=O)N2C[C@H]3C[C@H]3[C@H]2C(=O)Nc2nc(Br)ccc2C)cn1 [Compound 634, (1R,2S,5S)-3-(2-(3-Acetyl-5-(2-methoxypyrimidin-5-yl)-1H-indazol-1-yl)acetyl)-N-(6-bromo-3-methylpyridin-2-yl)-3-azabicyclo[3.1.0]hexane-2-carboxamide]",< 1000 nM
3,"CC(=O)c1nn(CC(=O)N2CC[C@H]2C(=O)Nc2cccc(C)n2)c2ccc(-c3cccc(C#N)c3)cc12 [Compound 547, (S)-1-(2-(3-Acetyl-5-(3-cyanophenyl)-1H-indazol-1-yl)acetyl)-N-(6-methylpyridin-2-yl)azetidine-2-carboxamide]",> 10000 nM
4,"CC(=O)c1nn(CC(=O)N2C[C@H](F)C[C@H]2C(=O)Nc2cccc(C(F)(F)F)n2)c2ccc(-c3cnc(N)nc3)cc12 [Compound 560, (2S,4R)-1-(2-(3-Acetyl-5-(2-aminopyrimidin-5-yl)-1H-indazol-1-yl)acetyl)-4-fluoro-N-(6-(trifluoromethyl)pyridin-2-yl)pyrrolidine-2-carboxamide]",< 1000 nM

# Same assay, conditions: Table 3; Human Factor D 80 nM, substrate Z-L-Lys-SBzl; read-out: IC50 (Stars)
row,Structure (SMILES),IC50
1,"COc1cc(Br)nc(NC(=O)[C@@H]2C[C@H]3C[C@H]3N2C(=O)Cn2nc(C(C)=O)c3cc(-c4cnc(N)nc4)ccc32)c1 [Compound 434, (1R,3S,5R)-2-(2-(3-Acetyl-5-(2-aminopyrimidin-5-yl)-1H-indazol-1-yl)acetyl)-N-(6-bromo-4-methoxypyridin-2-yl)-2-azabicyclo[3.1.0]hexane-3-carboxamide]",< 1000 nM
2,"CC(=O)c1nn(CC(=O)N2[C@H](C(=O)Nc3cccc(Br)n3)C[C@@]3(CO)C[C@@H]23)c2ccc(-c3cnc(C)nc3)cc12 [Compound 392, (1R,3S,5S)-2-(2-(3-Acetyl-5-(2-Methylpyrimidin-5-yl)-1H-indazol-1-yl)acetyl)-N-(6-bromopyridin-2-yl)-5-(hydroxymethyl)-2-azabicyclo[3.1.0]hexane-3-carboxamide]",< 1000 nM
3,"CC(=O)c1nn(CC(=O)N2C[C@H](F)C[C@H]2C(=O)Nc2nc(CC(F)(F)F)cs2)c2ccc(-c3cnc(C)nc3)cc12 [Compound 355, (2S,4R)-1-(2-(3-Acetyl-5-(2-methylpyrimidin-5-yl)-1H-indazol-1-yl)acetyl)-4-fluoro-N-(4-(2,2,2-trifluoroethyl)thiazol-2-yl)pyrrolidine-2-carboxamide]",< 1000 nM
4,"CC(=O)c1nn(CC(=O)N2C[C@H](F)C[C@H]2C(=O)Nc2nc(-c3ccccc3Cl)cs2)c2ccc(-c3cnc(C)nc3)cc12 [Compound 453, (2S,4R)-1-(2-(3-Acetyl-5-(2-methylpyrimidin-5-yl)-1H-indazol-1-yl)acetyl)-N-(4-(2-chlorophenyl)thiazol-2-yl)-4-fluoropyrrolidine-2-carboxamide]",> 10000 nM
5,CC(=O)c1nn(CC(=O)N2[C@@H]3C[C@@H]3C[C@H]2C(=O)NC/C(F)=C(\C)c2ccccc2Cl)c2ccc(-c3cnc(C)nc3)cc12 [Compound 528],< 1000 nM
6,"CC(=O)c1nn(CC(=O)N2C[C@H](F)C[C@H]2C(=O)Nc2ccc(F)c(Br)n2)c2ccc(-c3cnc(N)nc3)cc12 [Compound 451, (2S,4R)-1-(2-(3-Acetyl-5-(2-aminopyrimidin-5-yl)-1H-indazol-1-yl)acetyl)-N-(6-bromo-5-fluoropyridin-2-yl)-4-fluoropyrrolidine-2-carboxamide]",< 1000 nM
7,"CC(=O)c1nn(CC(=O)N2C[C@H](F)C[C@H]2C(=O)Nc2nc(Br)cs2)c2ccc(-c3cnc(C)nc3)cc12 [Compound 448, (2S,4R)-1-(2-(3-Acetyl-5-(2-methylpyrimidin-5-yl)-1H-indazol-1-yl)acetyl)-N-(4-bromothiazol-2-yl)-4-fluoropyrrolidine-2-carboxamide]",< 1000 nM
8,"COc1ccc(NC(=O)[C@@H]2C[C@@H](F)CN2C(=O)Cn2nc(C(C)=O)c3cc(-c4cnc(C)nc4)ccc32)nc1Br [Compound 394, (2S,4R)-1-(2-(3-Acetyl-5-(2-methylpyrimidin-5-yl)-1H-indazol-1-yl)acetyl)-N-(6-bromo-5-methoxypyridin-2-yl)-4-fluoropyrrolidine-2-carboxamide]",< 1000 nM
9,"CC(=O)c1nn(CC(=O)N2C[C@H](F)C[C@H]2C(=O)Nc2cc(C)n(CC(F)(F)F)n2)c2ccc(-c3cnc(C)nc3)cc12 [Compound 429, (2S,4R)-1-(2-(3-Acetyl-5-(2-methylpyrimidin-5-yl)-1H-indazol-1-yl)acetyl)-N-(5-methyl-1-(2,2,2-trifluoroethyl)-1H-pyrazol-3-yl)-4-fluoropyrrolidine-2-carboxamide]",< 1000 nM
